“And” between values parts separate entries of the source, which are not always exact repeats. Identical values can stand only once. “Also recorded” adds a separate entry of the source. Like-named read-outs stand apart in the source and are kept apart here.
Experiments:
aromatase = biological target: T1, aromatase (Homo sapiens, UniProt P11511); assay: Assay for inhibition of aromatase activity (human placental microsomes, [1,2-3H]androstenedione); format: biochemical; details: for aromatase inhibition, result in words: in vitro aromatase assay; for fold greater aromatase inhibition potency than aminoglutethimide: versus positive control aminoglutethimide
T1 construct: Reaction mixtures were prepared in glass tubes containing 4 μL of placental microsomes (5 mg/mL); from tissue; host or cells: human term placenta (microsomal fraction)
T1 sequence (P11511 1-503): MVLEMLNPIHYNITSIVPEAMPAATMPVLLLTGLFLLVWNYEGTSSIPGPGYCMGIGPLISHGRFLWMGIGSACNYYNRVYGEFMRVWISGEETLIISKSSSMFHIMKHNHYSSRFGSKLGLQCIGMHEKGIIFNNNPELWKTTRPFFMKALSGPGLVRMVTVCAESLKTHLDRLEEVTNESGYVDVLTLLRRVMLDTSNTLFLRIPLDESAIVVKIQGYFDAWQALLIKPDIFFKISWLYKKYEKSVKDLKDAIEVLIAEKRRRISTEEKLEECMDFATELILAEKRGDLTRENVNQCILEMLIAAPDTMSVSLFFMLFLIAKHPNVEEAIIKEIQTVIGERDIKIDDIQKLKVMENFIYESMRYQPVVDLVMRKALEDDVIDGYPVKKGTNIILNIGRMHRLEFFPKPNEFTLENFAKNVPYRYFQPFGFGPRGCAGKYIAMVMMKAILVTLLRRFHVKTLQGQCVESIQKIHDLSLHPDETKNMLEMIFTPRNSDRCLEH
Method: Assay for Inhibition of Aromatase Activity. Microsomes were prepared from freshly delivered human term placentas using 0.05 M potassium phosphate buffer, pH 7.4, and stored frozen in plastic tubes at −70° C. […] After a 4 min incubation at 37° C., the reaction was terminated by adding 3 mL of chloroform. The tubes were centrifuged at 2,000×g for 10 min and then 300 μL of the aqueous phases were transferred to tubes containing 300 μL of charcoal/dextrin solution (5%). Following another 10 min centrifugation at 2,000×g, supernatant fractions (500 μL) were used for the determination of radioactivity. Inhibition of aromatase activity was calculated using the following equation: [formula]
Samples were tested in duplicate and the mean values were used to prepare dose-response curves. Results were typically expressed as IC50 values.

[1] = system: alveolar lesions in a mouse mammary organ culture model; assay: Mouse mammary organ culture model, formation of alveolar lesions; format: cell-based; details: tested at 100 ng/ml
[2] = system: tumors in Sprague-Dawley rats; details: 400 mg/kg diet; cited from earlier work
[3] = human placental microsomes, read-out: IC50 (μM), aromatase inhibitory activity
[4] = read-out: IC50, inactive in the aromatase inhibition assay at the dose levels used

Row | Molecule | IC50 (aromatase; [3]) | aromatase inhibition, result in words (aromatase) | other results
1 | (2S)-Euchrenone a7 [Compound 15] | 3.4 µM |  | 
2 | CC(C)=CCc1c(O)cc(O)cc1-c1cc2ccc(O)cc2o1 [Compound 10, Demethylmoracin I] | 31.1 µM | did not show potent aromatase inhibition; also recorded: active | 
3 | CC(C)=CCc1cc2c(cc1O)O[C@H](c1ccc(O)cc1)CC2=O [bavachin, Bavachin] |  | not active | 
4 | CC(C)=CCc1cc([C@@H]2CCc3ccc(O)cc3O2)ccc1O [Compound 4, (2S)-7,4′-Dihydroxy-3′-prenylflavan] |  | did not show potent aromatase inhibition; also recorded: inactive | 
5 | CC1=C[C@@H]2c3c(O)cc(-c4cc5ccc(O)cc5o4)cc3O[C@]3(c4ccc(O)cc4O)Oc4cc(O)ccc4[C@@H](C1)[C@H]23 [Compound 21, Albanol A] | 7.5 µM |  | 
6 | COc1cc(O)ccc1CCCc1ccc(O)cc1 [broussonin B, Broussonin B] |  | did not show potent aromatase inhibition | 
7 | O=c1ccc2c(O)cc(O)cc2o1 [5,7-dihydrocoumarin, 5,7-Dihydroxycoumarin] |  |  | IC50 (aromatase; [4]): > 225 µM
8 | CC1(C)C=Cc2c(O)cc(-c3cc4ccc(O)cc4o3)cc2O1 [moracin D, Moracin D] |  | did not show potent aromatase inhibition | 
9 | COc1cc(O)ccc1CCCc1ccc(O)c(CC=C(C)C)c1 [Compound 7, 1-(4-Hydroxy-2-methoxyphenyl)-3-(4-hydroxy-3-prenylphenyl)propane] |  | inactive | melting point: 85 to 86 °C
10 | COc1ccc(CCCc2ccc(OC)c(O)c2)c(O)c1 [broussonin E, Broussonin E] |  | did not show potent aromatase inhibition | 
11 | C/C(=C\Cc1c(O)ccc(C(=O)/C=C/c2ccc(O)cc2O)c1O)COC(=O)/C=C/c1ccc(O)cc1 [Compound 9, 3′-[γ-Hydroxymethyl-(E)-γ-methylallyl]-2,4,2′,4′-tetrahydroxychalcone 11′-O-coumarate] | 0.5 µM and 0.52 µM | active | fold greater aromatase inhibition potency than aminoglutethimide (aromatase): approximately ten
12 | CC(C)=CCc1c(O)ccc(CCCc2ccc(O)cc2)c1O [Compound 6, 1-(2,4-Dihydroxy-3-prenylphenyl)-3-(4-hydroxyphenyl)propane] |  | inactive | melting point: 115 to 116 °C
13 | CC(C)(O)C1Cc2c(ccc3c2O[C@H](c2ccc(O)cc2O)CC3=O)O1 (stereo partly drawn) [Compound 11, 2S-2′,4′-Dihydroxy-2″-(1-hydroxy-1-methylethyl)-dihydrofuro[2,3-h]flavanone] | ~0.1 µM and 0.11 µM | active | fold greater aromatase inhibition potency than aminoglutethimide (aromatase): approximately 60 fold; inhibition at 0.1 µg/mL [1]: 50%
14 | Aminoglutethimide |  |  | MNU-induced tumor incidence [2]: effectively reduces
15 | O=C1c2c(O)cc(O)cc2O[C@H](c2ccc(O)cc2O)[C@H]1O [(2R,3R)-5,7,2′,4′-tetrahydroxyflavanonol, (2R,3R)-5,7,2′,4′-Tetrahydroxyflavanonol] |  | did not show potent aromatase inhibition | 
16 | CC(C)=CCc1cc([C@H]2Oc3c(CC=C(C)C)c(O)cc(O)c3C(=O)[C@@H]2O)ccc1O [(2R,3R)-lespedezaflavanone C, (2R,3R)-Lespedezaflavanone C] |  | did not show potent aromatase inhibition | 
17 | COc1ccc(CCCc2ccc(O)cc2)c(O)c1 [Compound 18, Broussonin A] | 30 µM | did not show potent aromatase inhibition | 

Row | Molecule | IC50 (aromatase; [3]) | aromatase inhibition, result in words (aromatase) | other results
18 | COc1ccc2c(c1CC=C(C)C)O[C@H](c1ccc(O)cc1O)CC2 [Compound 22, (2S)-2′,4′-Dihydroxy-7-methoxy-8-prenylflavan] |  | did not show potent aromatase inhibition | IC50 (aromatase; [4]): > 118 µM; melting point: 95 to 96 °C
19 | COc1c(-c2ccc(O)c(O)c2)oc2cc(O)c(C/C=C(\C)CCC=C(C)C)c(O)c2c1=O [Compound 3, 5,7,3′,4′-Tetrahydroxy-3-methoxy-6-geranylflavone] |  | not active; also recorded: inactive | melting point: 98 to 99 °C
20 | CC(C)=CCC/C(C)=C/Cc1c(O)cc2oc(-c3ccc(O)c(O)c3)c(O)c(=O)c2c1O [Compound 2, 5,7,3′,4′-Tetrahydroxy-6-geranylflavonol] |  | not active; also recorded: inactive | 
21 | O=C1C[C@@H](c2ccc(O)cc2O)Oc2cc(O)cc(O)c21 [Compound 14, (2S)-5,7,2′,4′-Tetrahydroxyflavanone] | 2.2 µM |  | 
22 | COc1cc(/C=C/C(=O)OC/C(C)=C/Cc2c(O)ccc(C(=O)/C=C/c3ccc(O)cc3O)c2O)ccc1O [Compound 8, 3′-(γ-hydroxymethyl-(E)-γ-methylallyl)-2,4,2′,4′-tetrahydroxychalcone 11′-O-ferulate] | 7.1 µM | active | 
23 | Broussonin F |  | did not show potent aromatase inhibition | 
24 | Oc1cc(O)cc(-c2cc3ccc(O)cc3o2)c1 [moracin M, Moracin M] |  | did not show potent aromatase inhibition | 
25 | CC(C)=CCc1c(O)cc2oc(-c3ccc(O)c(O)c3)c(O)c(=O)c2c1O [gancaonin P, Gancaonin P] |  | not active | 
26 | COc1cc(O)cc(-c2cc3ccc(O)cc3o2)c1CC=C(C)C [moracin I, Moracin I] |  | did not show potent aromatase inhibition | 
27 | Oc1ccc([C@@H]2CCc3ccc(O)cc3O2)cc1 [(2S)-7,4′-dihydroxyflavan, (2S)-7,4′-Dihydroxyflavan] |  | did not show potent aromatase inhibition | 
28 | O=C1c2c(O)cc(O)cc2O[C@H](c2ccc(O)cc2)[C@H]1O [(2R,3R)-katuranin, (2R,3R)-Katuranin] |  | did not show potent aromatase inhibition | 
29 | CC(C)=CCc1cc(-c2oc3c(CC=C(C)C)c(O)cc(O)c3c(=O)c2O)ccc1O [Compound 16, Broussoflavonol F] | 9.7 µM |  | 
30 | CC(C)=CCc1c(O)ccc(C(=O)/C=C/c2ccc(O)cc2O)c1O [Compound 19, 2,4,2′,4′-Tetrahydroxy-3′-prenylchalcone] | 4.6 µM |  | 
31 | CC(C)=CCc1cc2cc(-c3cc(O)cc(O)c3)oc2cc1O [Compound 20, Moracin N] | 31.1 µM | did not show potent aromatase inhibition | 
32 | CC(C)=CCC/C(C)=C/Cc1c(-c2ccc(O)cc2O)oc2cc(O)cc(O)c2c1=O [Compound 1, 5,7,2′,4′-Tetrahydroxy-3-geranylflavone] | 24 µM | active | melting point: 94 to 95 °C
33 | Oc1ccc(CCCc2ccc(O)cc2O)cc1 [Compound 5, 1-(2,4-Dihydroxyphenyl)-3-(4-hydroxyphenyl)propane] |  | inactive | melting point: 92 to 93 °C

Source: US6737439B2, “Aromatase inhibitors from Broussonetia papyrifera” (The Board of Trustees of the University of Illinois, priority 2001, dated 2004)
